Measured values from patent publication US6750228B1, “Aromatic sulfone hydroxamic acid metalloprotease inhibitor” (priority 1997, dated 2004).
Where a name gives a salt, the structure may show the parent alone. Read-outs that look alike come from different tables or passages of the source.

Key:
Assay in all cases: biochemical
MMP-2 = biological target: T1, MMP-2 (Homo sapiens, UniProt P08253); details: read-out: MMP-2 IC50
T1 construct: made in house; provided by Dr. Gregory Goldberg, Washington University
T1 sequence (P08253 110-660): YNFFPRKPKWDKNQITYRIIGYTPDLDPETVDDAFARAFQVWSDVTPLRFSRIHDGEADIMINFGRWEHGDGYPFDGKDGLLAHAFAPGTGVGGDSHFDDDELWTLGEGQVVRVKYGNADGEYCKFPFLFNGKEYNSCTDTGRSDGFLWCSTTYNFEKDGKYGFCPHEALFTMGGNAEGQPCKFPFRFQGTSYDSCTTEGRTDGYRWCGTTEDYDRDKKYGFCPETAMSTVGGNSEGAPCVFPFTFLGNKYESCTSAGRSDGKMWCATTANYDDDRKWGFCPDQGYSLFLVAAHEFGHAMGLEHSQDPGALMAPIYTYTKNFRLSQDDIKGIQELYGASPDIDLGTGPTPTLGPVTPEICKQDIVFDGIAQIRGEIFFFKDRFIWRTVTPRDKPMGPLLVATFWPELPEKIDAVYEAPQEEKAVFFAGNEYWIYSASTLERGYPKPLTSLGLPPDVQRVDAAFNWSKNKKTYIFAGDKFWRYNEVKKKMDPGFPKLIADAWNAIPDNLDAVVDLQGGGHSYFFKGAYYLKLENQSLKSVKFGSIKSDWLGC
Outline: (§1)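 Assay buffer 100 mM Tris-HCl, 100 mM NaCl, 10 mM CaCl2, pH 7.5. Activated MMP + inhibitor, 5 min RT; then methoxycoumarin peptide substrate, 4 μM final. Readout fluorescence; IC50 calculated.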

MMP-1 = biological target: T2, MMP-1 (Homo sapiens, UniProt P03956); details: read-out: MMP-1 IC50
T2 construct: made in house; host or cells: transfected HT-1080 cells (provided by Dr. Harold Welgus, Washington University)
T2 sequence (P03956 100-469): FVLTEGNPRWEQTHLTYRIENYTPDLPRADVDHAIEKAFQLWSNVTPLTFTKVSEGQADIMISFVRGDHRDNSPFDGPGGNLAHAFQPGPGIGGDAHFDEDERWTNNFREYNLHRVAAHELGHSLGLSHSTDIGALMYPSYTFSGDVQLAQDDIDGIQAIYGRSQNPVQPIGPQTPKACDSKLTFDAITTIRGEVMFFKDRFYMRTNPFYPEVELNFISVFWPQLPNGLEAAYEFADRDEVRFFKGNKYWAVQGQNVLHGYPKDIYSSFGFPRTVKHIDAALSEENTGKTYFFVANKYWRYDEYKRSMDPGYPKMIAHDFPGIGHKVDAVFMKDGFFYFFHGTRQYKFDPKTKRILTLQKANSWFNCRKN
Outline: as §1

MMP-13 = biological target: T3, MMP-13 (Homo sapiens, UniProt P45452); details: read-out: MMP-13 IC50
T3 construct: made in house; host or cells: baculovirus / insect cells
Outline: as §1

[1] = recombinant human MMP-2, MCA peptide substrate 4 μM, pH 7.5, room temperature
[2] = recombinant human MMP-1, MCA peptide substrate 4 μM, pH 7.5, room temperature
[3] = recombinant human MMP-13, MCA peptide substrate 4 μM, pH 7.5, room temperature

Row | SMILES | IC50 (MMP-2; [1]) [nM] | IC50 (MMP-1; [2]) [nM] | IC50 (MMP-13; [3]) [nM] | IC50 (MMP-1) [nM] | IC50 (MMP-2) [nM] | IC50 (MMP-13) [nM]
1 | CC1CN(c2ccc(S(=O)(=O)C3(C(=O)NO)CCOCC3)cc2)CCC1OCc1ccc(F)cc1 (stereo not drawn) [Example 582] | 1800 | > 10000 | 30 | – | – | –
2 | COC[C@@H]1CCN(c2ccc(S(=O)(=O)C3(C(=O)NO)CCOCC3)cc2)C1 [Example 529] | > 10000 | > 10000 | 8800 | – | – | –
3 | COCCNCC(=O)N1CCC(C(=O)NO)(S(=O)(=O)c2ccc(N3CCC(C(=O)N4CC(C)CC(C)C4)CC3)cc2)CC1 (stereo not drawn) [Example 309] | > 10000 | > 10000 | 48.5 | – | – | –
4 | CN(C)CCN(C)CC(=O)N1CCC(C(=O)NO)(S(=O)(=O)c2ccc(Oc3ccc(C(F)(F)F)cc3)cc2)CC1 [Example 323] | 0.4 | > 10000 | 1.3 | – | – | –
5 | CONCC(=O)N1CCC(C(=O)NO)(S(=O)(=O)c2ccc(N3CCC(C(=O)N4CC(C)CC(C)C4)CC3)cc2)CC1 (stereo not drawn) [Example 312] | > 10000 | > 10000 | 200 | – | – | –
6 | CCc1ccc(C(=O)C2CCN(c3ccc(S(=O)(=O)C4(C(=O)NO)CCOCC4)cc3)CC2)cc1 [Example 733] | 270 | > 10000 | 1.6 | – | – | –
7 | O=C(c1ccc2ccccc2c1)C1CCN(c2ccc(S(=O)(=O)C3(C(=O)NO)CCOCC3)cc2)CC1 [Example 844] | 4700 | – | 5 | > 10000 | – | –
8 | O=C(Nc1cccc(Cl)c1)C1CCN(c2ccc(S(=O)(=O)C3(C(=O)NO)CCOCC3)cc2)CC1 [Example 70] | 700 | > 10000 | 10.6 | – | – | –
9 | Cc1ccc(OC2CCN(c3ccc(S(=O)(=O)C4(C(=O)NO)CCOCC4)cc3)CC2)c([N+](=O)[O-])c1 [Example 551] | 140 | > 10000 | 9 | – | – | –
10 | COCCN1CCC(C(=O)NO)(S(=O)(=O)c2ccc(N3CCC(C(=O)Nc4cccc(OC(F)(F)F)c4)CC3)cc2)CC1 [Example 249, N-Hydroxy-1-(2-methoxyethyl)-4-[[4-[4-[[[3-(trifluoromethoxy)phenyl]amino]carbonyl]-1-piperidinyl]phenyl]sulfonyl]-4-piperidinecarboxamide, Monohydrochloride] | 235 | > 10000 | 13 | – | – | –
11 | COc1cccc(NC(=O)C2CCN(c3ccc(S(=O)(=O)C4(C(=O)NO)CCOCC4)cc3)CC2)c1 [Example 72] | 800 | > 10000 | 13 | – | – | –
12 | COCCN1CCC(C(=O)NO)(S(=O)(=O)c2ccc(N3CCC(OCc4ccc(Cl)cc4)CC3)cc2)CC1 [Example 445] | 1200 | > 10000 | 90 | – | – | –
13 | O=C(c1ccc(F)cc1)C1CCN(c2ccc(S(=O)(=O)C3(C(=O)NO)CCS(=O)(=O)CC3)cc2)CC1 [Example 161] | – | – | – | > 10000 | 900 | 32.6
14 | O=C(CCCCNCc1ccncc1)N1CCC(C(=O)NO)(S(=O)(=O)c2ccc(Oc3ccc(C(F)(F)F)cc3)cc2)CC1 [Example 340] | < 0.1 | > 10000 | 0.3 | – | – | –
15 | CC1CC(C)CN(C(=O)C2CCN(c3ccc(S(=O)(=O)C4(C(=O)NO)CCN(C(=O)CN5CCCC5=O)CC4)cc3)CC2)C1 (stereo not drawn) [Example 314] | > 10000 | > 10000 | 65 | – | – | –
16 | CC1CCCN(C(=O)C2CCN(c3ccc(S(=O)(=O)C4(C(=O)NO)CCOCC4)cc3)CC2)C1 (stereo not drawn) [Example 47] | – | – | – | > 10000 | 6000 | 11.4
17 | COCC1CCCN(c2ccc(S(=O)(=O)C3(C(=O)NO)CCOCC3)cc2)C1 (stereo not drawn) [Example 525] | 700 | > 10000 | 290 | – | – | –
18 | N#Cc1cccc(COC2CCN(c3ccc(S(=O)(=O)C4(C(=O)NO)CCOCC4)cc3)CC2)c1 [Example 560] | 306 | > 10000 | 4.5 | – | – | –
